How the values were obtained:
[1] = biological target: T1, 2B6 (Homo sapiens, UniProt P20813); assay: CYP2B6 inhibition; format: in vitro ADME; conditions: up to 10 μM
T1 sequence (P20813 1-491): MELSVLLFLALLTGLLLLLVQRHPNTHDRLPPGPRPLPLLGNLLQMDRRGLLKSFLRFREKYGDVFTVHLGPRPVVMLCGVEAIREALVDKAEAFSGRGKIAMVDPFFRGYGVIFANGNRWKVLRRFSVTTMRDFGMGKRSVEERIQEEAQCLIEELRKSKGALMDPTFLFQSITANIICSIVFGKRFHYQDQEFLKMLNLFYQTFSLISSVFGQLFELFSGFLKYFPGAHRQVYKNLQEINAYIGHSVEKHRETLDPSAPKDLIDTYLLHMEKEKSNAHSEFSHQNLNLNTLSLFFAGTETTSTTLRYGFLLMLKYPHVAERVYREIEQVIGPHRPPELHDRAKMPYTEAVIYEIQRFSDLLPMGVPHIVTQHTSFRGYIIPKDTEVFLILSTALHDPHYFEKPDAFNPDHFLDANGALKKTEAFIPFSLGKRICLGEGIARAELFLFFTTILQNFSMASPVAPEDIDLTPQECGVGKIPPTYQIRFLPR

[2] = biological target: T2, NTCP (Homo sapiens, UniProt Q14973); conditions: in vitro; read-out: other OATPs NTCP inhibition IC50; cited from earlier work
T2 sequence (Q14973 1-349): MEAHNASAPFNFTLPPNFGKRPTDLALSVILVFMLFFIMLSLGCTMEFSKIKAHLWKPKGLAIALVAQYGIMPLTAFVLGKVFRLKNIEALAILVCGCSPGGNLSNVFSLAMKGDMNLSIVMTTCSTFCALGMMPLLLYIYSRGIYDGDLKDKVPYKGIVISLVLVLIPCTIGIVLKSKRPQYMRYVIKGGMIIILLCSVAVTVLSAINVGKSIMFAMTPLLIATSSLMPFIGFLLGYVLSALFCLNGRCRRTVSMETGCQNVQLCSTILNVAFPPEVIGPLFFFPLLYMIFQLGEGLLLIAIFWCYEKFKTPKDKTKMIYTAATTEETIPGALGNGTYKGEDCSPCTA

Compound	inhibition of 2B6 [1]	IC50 [2] [nM]
COC(=O)N[C@H](C(=O)N1[C@H](c2nc3cc(-c4cc5ccc4CCc4ccc(c(-c6ccc7[nH]c([C@@H]8C[C@@H]9CCCC[C@@H]9N8C(=O)[C@@H](NC(=O)OC)C(C)C)nc7c6)c4)CC5)ccc3[nH]2)C[C@@H]2CCCC[C@@H]21)C(C)C [ODV, Odalasvir]	no inhibition	–
COc1ccc2c(O[C@@H]3C[C@H]4C(=O)N[C@]5(C(=O)NS(=O)(=O)C6CC6)C[C@H]5/C=C\CCCCN(C)C(=O)[C@@H]4C3)cc(-c3nc(C(C)C)cs3)nc2c1C [SMV, Simeprevir, reference compound]	–	2200

Reference: patent US20170087174A1, “COMBINATION THERAPY REGIMEN FOR TREATMENT OF HCV” (JANSSEN PHARMACEUTICALS, INC., priority 2015, published 2017)
